Test results as given in ChEMBL document CHEMBL1126534, “Role of sulfonamide moiety in non-prostanoid txa2 receptor antagonist kt2-962 : modifications of this moiety and the resulting activities” (Bioorg Med Chem Lett, 1993).

Assays:
Thromboxane A2 receptor [1] = biological target: T1, Thromboxane A2 receptor (Rattus norvegicus, UniProt P34978); assay: Tested for antagonistic activity on isolated rat thoracic aorta (thromboxane A2 receptor) precontracted by U-46619 (3 x 10 e-8 M); type: functional, tissue-based
T1 sequence (P34978 whole entry): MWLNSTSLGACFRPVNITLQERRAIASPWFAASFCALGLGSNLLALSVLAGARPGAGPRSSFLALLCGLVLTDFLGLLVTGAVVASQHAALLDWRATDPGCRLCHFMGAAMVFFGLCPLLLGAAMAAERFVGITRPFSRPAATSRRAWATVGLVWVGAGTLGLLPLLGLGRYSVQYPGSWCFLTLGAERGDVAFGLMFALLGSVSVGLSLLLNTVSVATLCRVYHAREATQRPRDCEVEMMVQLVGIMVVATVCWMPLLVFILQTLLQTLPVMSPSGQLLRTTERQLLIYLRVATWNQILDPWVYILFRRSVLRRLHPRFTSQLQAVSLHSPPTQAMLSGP

Oryctolagus cuniculus = organism: Oryctolagus cuniculus; assay: Tested for 50% maximal aggregation of rabbit platelet-rich plasma induced by 4 x 10 e-6 M U-46619; type: functional
Thromboxane A2 receptor [2] = biological target: T1, Thromboxane A2 receptor; assay: Tested for antagonistic activity on isolated rat thoracic aorta (TXA2 receptor) precontracted by U-46619 (3 x 10 e-8 M); type: functional, tissue-based

SMILES | IC50 (Thromboxane A2 receptor [1]) [µM] | IC50 (Oryctolagus cuniculus) [µM] | IC50 (Thromboxane A2 receptor [2]) [µM]
CC(C)c1ccc2c(CCCCNS(=O)(=O)c3ccc(Cl)cc3)cc(S(=O)(=O)O)c-2cc1 | 0.0009 | – | –
CC(C)c1ccc2c(CCC/C=N/N=C(\S)Nc3ccc(Cl)cc3)cc(C(=O)O)c-2cc1 | > 100 | – | –
CC(C)c1ccc2c(CCC/C=N/NC(=O)Nc3ccc(Cl)cc3)cc(C(=O)O)c-2cc1 | > 100 | – | –
CC(C)c1ccc2c(CCC/C=N\NC(=O)Nc3ccccc3)cc(C(=O)O)c-2cc1 | > 100 | > 1000 | –
CC(C)c1ccc2c(CNC(=O)CNC(=O)c3ccccc3)cc(C(=O)O)c-2cc1 | – | > 1000 | > 100
CC(C)c1ccc2c(CCCCS(=O)(=O)Nc3ccc(Cl)cc3)cc(C(=O)O)c-2cc1 | 2.6 | > 1000 | –
CC(C)c1ccc2c(CCCC(=O)NS(=O)(=O)c3ccc(Cl)cc3)cc(S(=O)(=O)O)c-2cc1 | 54 | 56 | –
CC(C)c1ccc2c(CCCCS(=O)(=O)Nc3ccc(Cl)cc3)cc(S(=O)(=O)O)c-2cc1 | 0.22 | > 1000 | –
CC(C)c1ccc2c(CCCS(=O)(=O)Nc3ccc(Cl)cc3)cc(S(=O)(=O)O)c-2cc1 | 0.86 | – | –
CC(C)c1ccc2c(CNC(=O)CNS(=O)(=O)c3ccc(Cl)cc3)cc(C(=O)O)c-2cc1 | > 100 | – | –
CC(C)c1ccc2c(CNC(=O)CNC(=O)c3ccc(Cl)cc3)cc(C(=O)O)c-2cc1 | > 100 | – | –
CC(C)c1ccc2c(CCCC(=O)NS(=O)(=O)c3ccc(Cl)cc3)cc(C(=O)O)c-2cc1 | 19 | > 1000 | –
CC(C)c1ccc2c(CCCCCS(=O)(=O)Nc3ccc(Cl)cc3)cc(S(=O)(=O)O)c-2cc1 | 0.86 | – | –
CC(C)c1ccc2c(CCCCCS(=O)(=O)Nc3ccccc3)cc(S(=O)(=O)O)c-2cc1 | 1.4 | – | –
CC(C)c1ccc2c(CCC/C=N/N=C(\S)Nc3ccccc3)cc(C(=O)O)c-2cc1 | 590 | > 1000 | –
CC(C)c1ccc2c(CCCS(=O)(=O)Nc3ccc(Cl)cc3)cc(C(=O)O)c-2cc1 | 9.1 | – | –
CC(C)c1ccc2c(CCCCCS(=O)(=O)Nc3ccc(Cl)cc3)cc(C(=O)O)c-2cc1 | 1.7 | – | –
CC(C)c1ccc2c(CCCCS(=O)(=O)Nc3ccccc3)cc(S(=O)(=O)O)c-2cc1 | 1.5 | – | –

The remaining lines, values ahead:

IC50 (Thromboxane A2 receptor [1]) [µM] | IC50 (Oryctolagus cuniculus) [µM] | IC50 (Thromboxane A2 receptor [2]) [µM] | SMILES
1.5 | – | – | CC(C)c1ccc2c(CCCCCS(=O)(=O)Nc3ccccc3)cc(C(=O)O)c-2cc1
> 100 | – | – | CC(C)c1ccc2c(CCCC(=O)NS(=O)(=O)c3ccccc3)cc(C(=O)O)c-2cc1
8.7 | – | – | CC(C)c1ccc2c(CCCCS(=O)(=O)Nc3ccccc3)cc(C(=O)O)c-2cc1
> 100 | > 1000 | – | CC(C)c1ccc2c(CNC(=O)CNS(=O)(=O)c3ccccc3)cc(C(=O)O)c-2cc1
65 | – | – | CC(C)c1ccc2c(CCCC(=O)NS(=O)(=O)c3ccccc3)cc(S(=O)(=O)O)c-2cc1
8.7 | – | – | CC(C)c1ccc2c(CCCS(=O)(=O)Nc3ccccc3)cc(S(=O)(=O)O)c-2cc1
12 | – | – | CC(C)c1ccc2c(CCCS(=O)(=O)Nc3ccccc3)cc(C(=O)O)c-2cc1
1.5 | – | – | O=C(O)COc1ccc(CCNS(=O)(=O)c2ccccc2)cc1 [SULOTROBAN]
